26 compounds from patent publication US8791143B2, “Anthranilic diamide derivatives having cyclic side-chains” (priority 2010, dated 2014) can be followed below.

Like-named read-outs stand apart in the source and are kept apart here.

The subject of data set [1] is larvae of the mustard beetle (Phaedon cochleariae). The data set can be described thus: Phaedon test (PHAECO spray treatment). The note with it: Phaedon cochleariae, 168 h, read-out: activity in % (beetle larvae killed).
Data set [2] can be described thus: log P by HPLC on reversed-phase columns (EEC Directive 79/831 Annex V.A8). In kind it is physicochemical.
Data set [3] relates to caterpillars of the armyworm (Spodoptera frugiperda). In words: Spodoptera frugiperda test (SPODFR spray treatment). In kind it is in vivo. Conditions: Spodoptera frugiperda, 168 h, read-out: activity in % (caterpillars killed).
Setting [4] is: reversed-phase C18 HPLC column, pH 2.7, HPLC reversed-phase C18, acidic range pH 2.7 (HCOOH), only or first value of the cell, read-out: log P.
The mark [5] stands for this setting: application rate 100 g/ha, after 7 days.

As for `Cc1cc(Cl)cc(C(=O)NC2CCSCC2)c1NC(=O)c1cc(Cn2nnc(C(F)(F)F)n2)nn1-c1ncccc1Cl` [Example 56], the pest or weed control at 100 g/ha in data set [1] and in data set [3] was 100% throughout. This compound displayed a chromatographic logP in data set [2] (pH 2.7, log P) of 3.58.
With `Cc1cc(Cl)cc(C(=O)NCC2(C)CCCO2)c1NC(=O)c1cc(Cn2nnc(C(F)(F)F)n2)nn1-c1ncccc1Cl` (stereo not drawn) [Example 61], the pest or weed control at 100 g/ha in data set [1] and in data set [3] was 100% in each case. The compound further had a chromatographic logP in data set [2] (pH 2.7, log P) of 3.48.
As for `Cc1cc(C#N)cc(C(=O)NCc2cccc(S(F)(F)(F)(F)F)c2)c1NC(=O)c1cc(Cn2nnc(C(F)(F)F)n2)nn1-c1ncccc1Cl` [Example 63], the pest or weed control at 100 g/ha in data set [1] and in data set [3] (setting [5]) was 100% in each case. In addition, the chromatographic logP in data set [2] (setting [4]) was 4.02.
`Cc1cc(C#N)cc(C(=O)NCc2ccc(S(F)(F)(F)(F)F)cc2)c1NC(=O)c1cc(Cn2nnc(C(F)(F)F)n2)nn1-c1ncccc1Cl` [Example 64]: the pest or weed control at 100 g/ha in data set [1] and in data set [3] (setting [5]) was 100% throughout. Besides, in data set [2] (setting [4]), the chromatographic logP is 4.01.
For the compound `Cc1cc(C#N)cc(C(=O)NCc2ccc(Cl)nc2)c1NC(=O)c1cc(Cn2nnc(C(F)(F)F)n2)nn1-c1ncccc1Cl` [Example 66], the pest or weed control at 100 g/ha in data set [1] and in data set [3] was 100% throughout. In addition, the chromatographic logP in data set [2] (pH 2.7, log P) turned out to be 3.11.
As for `Cc1cc(C#N)cc(C(=O)NC(C)c2ccc(Cl)cc2)c1NC(=O)c1cc(Cn2nnc(C(F)(F)F)n2)nn1-c1ncccc1Cl` (stereo not drawn) [Example 67], the pest or weed control at 100 g/ha in data set [1] and in data set [3] (setting [5]) was 100% in each case. Further, the chromatographic logP in data set [2] (setting [4]) came out at 3.91.
In the case of `Cc1cc(C#N)cc(C(=O)NCc2cccc(S(F)(F)(F)(F)F)c2)c1NC(=O)c1cc(Cn2nnnc2C(F)(F)F)nn1-c1ncccc1Cl` [Example 68], the pest or weed control at 100 g/ha in data set [1] and in data set [3] (setting [5]) was 100% throughout. Also, the chromatographic logP in data set [2] (setting [4]) came out at 3.69.
As for `Cc1cc(C#N)cc(C(=O)NCc2ccccc2)c1NC(=O)c1cc(Cn2nnc(C(F)(F)F)n2)nn1-c1ccccc1Cl` [Example 71], the pest or weed control at 100 g/ha in data set [1] and in data set [3] (setting [5]) was 100% throughout. Also, in data set [2] (setting [4]), the chromatographic logP is 3.77.
Regarding `Cc1cc(Cl)cc(C(=O)Nc2ccc(Cl)cc2)c1NC(=O)c1cc(Cn2nnc(C(F)(F)F)n2)nn1-c1ncccc1Cl` [Example 73], the pest or weed control at 100 g/ha in data set [1] and in data set [3] was 100% in each case. The chromatographic logP in data set [2] (pH 2.7, log P) stood at 4.17.
In the case of `Cc1cc(C#N)cc(C(=O)NC(C)c2ccccc2)c1NC(=O)c1cc(Cn2nnc(C(F)(F)F)n2)nn1-c1ccccc1Cl` (stereo not drawn) [Example 74], the pest or weed control at 100 g/ha in data set [1] and in data set [3] (setting [5]) was 100% throughout. For the same compound, the chromatographic logP in data set [2] (setting [4]) came out at 3.68.
For `Cc1cc(C#N)cc(C(=O)NCc2cccc(Cl)c2)c1NC(=O)c1cc(Cn2nnc(C(F)(F)F)n2)nn1-c1ccccc1Cl` [Example 75], the pest or weed control at 100 g/ha in data set [1] and in data set [3] (setting [5]) was 100% in each case. Moreover, the chromatographic logP in data set [2] (setting [4]) turned out to be 3.76.
For `COc1ccc(CNC(=O)c2cc(C#N)cc(C)c2NC(=O)c2cc(Cn3nnc(C(F)(F)F)n3)nn2-c2ccccc2Cl)cc1` [Example 76], the pest or weed control at 100 g/ha in data set [1] and in data set [3] (setting [5]) was 100% each time. Moreover, the chromatographic logP in data set [2] (setting [4]) amounted to 3.77.
For the compound `Cc1cc(C#N)cc(C(=O)NCc2ccc(Cl)cc2Cl)c1NC(=O)c1cc(Cn2nnc(C(F)(F)F)n2)nn1-c1ccccc1Cl` [Example 77], the pest or weed control at 100 g/ha in data set [1] and in data set [3] (setting [5]) was 100% in each case. The chromatographic logP in data set [2] (setting [4]) worked out at 4.42.
For `Cc1cc(Cl)cc(C(=O)NCc2ccccc2)c1NC(=O)c1cc(Cn2nnc(C(F)(F)F)n2)nn1-c1ncccc1Cl` [Example 81], the pest or weed control at 100 g/ha in data set [1] and in data set [3] was 100% in each case. The chromatographic logP in data set [2] (pH 2.7, log P) stood at 3.77.
With `Cc1cc(Cl)cc(C(=O)NCc2ccccc2Cl)c1NC(=O)c1cc(Cn2nnc(C(F)(F)F)n2)nn1-c1ncccc1Cl` [Example 82], the pest or weed control at 100 g/ha in data set [1] and in data set [3] was 100% each time. The same compound showed a chromatographic logP in data set [2] (pH 2.7, log P) of 4.06.
For the compound `Cc1cc(Cl)cc(C(=O)NCc2ccccc2F)c1NC(=O)c1cc(Cn2nnc(C(F)(F)F)n2)nn1-c1ncccc1Cl` [Example 83], the pest or weed control at 100 g/ha in data set [1] and in data set [3] was 100% throughout. For the same compound, in data set [2] (pH 2.7, log P), the chromatographic logP was 3.77.
As for `Cc1cc(Cl)cc(C(=O)NC(C)c2ccccc2)c1NC(=O)c1cc(Cn2nnc(C(F)(F)F)n2)nn1-c1ncccc1Cl` (stereo not drawn) [Example 84], the pest or weed control at 100 g/ha in data set [1] and in data set [3] was 100% in each case. For the same compound, in data set [2] (pH 2.7, log P), the chromatographic logP came to 3.92.
Take `Cc1cc(Cl)cc(C(=O)N[C@H](C)c2ccccc2)c1NC(=O)c1cc(Cn2nnc(C(F)(F)F)n2)nn1-c1ncccc1Cl` [Example 85]: the pest or weed control at 100 g/ha in data set [1] and in data set [3] was 100% each time. The compound also registered a chromatographic logP in data set [2] (pH 2.7, log P) of 3.92.
For `Cc1cccc(CNC(=O)c2cc(Cl)cc(C)c2NC(=O)c2cc(Cn3nnc(C(F)(F)F)n3)nn2-c2ncccc2Cl)c1` [Example 89], the pest or weed control at 100 g/ha in data set [1] and in data set [3] was 100% throughout. Besides, in data set [2] (pH 2.7, log P), the chromatographic logP was 4.08.
`Cc1cc(Cl)cc(C(=O)NCc2ccc(C(C)(C)C)cc2)c1NC(=O)c1cc(Cn2nnc(C(F)(F)F)n2)nn1-c1ncccc1Cl` [Example 91]: the pest or weed control at 100 g/ha in data set [1] and in data set [3] (setting [5]) was 100% throughout. In data set [2] (setting [4]), the chromatographic logP is 4.85.
As to `Cc1cc(Cl)cc(C(=O)NCc2ccc(Cl)cc2Cl)c1NC(=O)c1cc(Cn2nnc(C(F)(F)F)n2)nn1-c1ncccc1Cl` [Example 92], the pest or weed control at 100 g/ha in data set [1] and in data set [3] was 100% throughout. This compound also had a chromatographic logP in data set [2] (pH 2.7, log P) of 4.41.
`Cc1cc(Cl)cc(C(=O)NCc2ccc(Cl)c(Cl)c2)c1NC(=O)c1cc(Cn2nnc(C(F)(F)F)n2)nn1-c1ncccc1Cl` [Example 93]: the pest or weed control at 100 g/ha in data set [1] and in data set [3] was 100% in each case. In data set [2] (pH 2.7, log P), this compound displayed a chromatographic logP of 4.37.
For the compound `Cc1cc(Cl)cc(C(=O)NCc2cc(Cl)cc(Cl)c2)c1NC(=O)c1cc(Cn2nnc(C(F)(F)F)n2)nn1-c1ncccc1Cl` [Example 94], the pest or weed control at 100 g/ha in data set [1] and in data set [3] was 100% in each case. The compound also returned a chromatographic logP in data set [2] (pH 2.7, log P) of 4.49.
As for `Cc1cc(Cl)cc(C(=O)NCc2cccc(C(F)(F)F)c2)c1NC(=O)c1cc(Cn2nnc(C(F)(F)F)n2)nn1-c1ncccc1Cl` [Example 95], the pest or weed control at 100 g/ha in data set [1] and in data set [3] (setting [5]) was 100% each time. The chromatographic logP in data set [2] (setting [4]) came out at 4.23.
Consider `Cc1cc(Cl)cc(C(=O)NCc2ccc(C(F)(F)F)cc2)c1NC(=O)c1cc(Cn2nnc(C(F)(F)F)n2)nn1-c1ncccc1Cl` [Example 96], for which the pest or weed control at 100 g/ha in data set [1] and in data set [3] (setting [5]) was 100% each time. The chromatographic logP in data set [2] (setting [4]) was 4.21.
Take `Cc1cc(Cl)cc(C(=O)NCc2cccc(F)c2)c1NC(=O)c1cc(Cn2nnc(C(F)(F)F)n2)nn1-c1ncccc1Cl` [Example 98]: the pest or weed control at 100 g/ha in data set [1] and in data set [3] was 100% each time. The compound also gave a chromatographic logP in data set [2] (pH 2.7, log P) of 3.79.
